In US20220169598A1, “HALOGENATED PHENYLSULFONAMIDE HYDROXAMIC ACID COMPOUNDS, COMPOSITIONS AND USES THEREOF AS SELECTIVE HDAC6 INHIBITORS” (2681603 ONTARIO INC., priority 2019, published 2022):
Like-named read-outs stand apart in the source and are kept apart here.

Columns and labels:
K562 = test: Cytotoxicity in cell lines; format: cell-based; details: Homo sapiens
Method: (§1) The cytotoxicity of exemplary compounds of the application was tested in multiple cell lines including MV-4-11, MOLM-13, MCF-7, MRC9, K562 and MM.1S. The therapeutic index was evaluated by determining the toxicity of the exemplary compounds in healthy cell lines including fibroblasts and HUVEC.

MM.1S = test: Cytotoxicity in cell lines; format: cell-based; details: Homo sapiens, MM1.S; Table 4
Method: as §1

MV-4-11 = test: Cytotoxicity in cell lines; format: cell-based
Method: as §1

MOLM-13 = test: Cytotoxicity in cell lines; format: cell-based; details: Homo sapiens
Method: as §1

HDAC6 = target: T1, HDAC6 (Homo sapiens, UniProt Q9UBN7); test: in vitro activity-based HDAC assay; format: biochemical; details: ranges given; read-out: IC50 for HDAC6
T1 sequence (Q9UBN7 1-1215): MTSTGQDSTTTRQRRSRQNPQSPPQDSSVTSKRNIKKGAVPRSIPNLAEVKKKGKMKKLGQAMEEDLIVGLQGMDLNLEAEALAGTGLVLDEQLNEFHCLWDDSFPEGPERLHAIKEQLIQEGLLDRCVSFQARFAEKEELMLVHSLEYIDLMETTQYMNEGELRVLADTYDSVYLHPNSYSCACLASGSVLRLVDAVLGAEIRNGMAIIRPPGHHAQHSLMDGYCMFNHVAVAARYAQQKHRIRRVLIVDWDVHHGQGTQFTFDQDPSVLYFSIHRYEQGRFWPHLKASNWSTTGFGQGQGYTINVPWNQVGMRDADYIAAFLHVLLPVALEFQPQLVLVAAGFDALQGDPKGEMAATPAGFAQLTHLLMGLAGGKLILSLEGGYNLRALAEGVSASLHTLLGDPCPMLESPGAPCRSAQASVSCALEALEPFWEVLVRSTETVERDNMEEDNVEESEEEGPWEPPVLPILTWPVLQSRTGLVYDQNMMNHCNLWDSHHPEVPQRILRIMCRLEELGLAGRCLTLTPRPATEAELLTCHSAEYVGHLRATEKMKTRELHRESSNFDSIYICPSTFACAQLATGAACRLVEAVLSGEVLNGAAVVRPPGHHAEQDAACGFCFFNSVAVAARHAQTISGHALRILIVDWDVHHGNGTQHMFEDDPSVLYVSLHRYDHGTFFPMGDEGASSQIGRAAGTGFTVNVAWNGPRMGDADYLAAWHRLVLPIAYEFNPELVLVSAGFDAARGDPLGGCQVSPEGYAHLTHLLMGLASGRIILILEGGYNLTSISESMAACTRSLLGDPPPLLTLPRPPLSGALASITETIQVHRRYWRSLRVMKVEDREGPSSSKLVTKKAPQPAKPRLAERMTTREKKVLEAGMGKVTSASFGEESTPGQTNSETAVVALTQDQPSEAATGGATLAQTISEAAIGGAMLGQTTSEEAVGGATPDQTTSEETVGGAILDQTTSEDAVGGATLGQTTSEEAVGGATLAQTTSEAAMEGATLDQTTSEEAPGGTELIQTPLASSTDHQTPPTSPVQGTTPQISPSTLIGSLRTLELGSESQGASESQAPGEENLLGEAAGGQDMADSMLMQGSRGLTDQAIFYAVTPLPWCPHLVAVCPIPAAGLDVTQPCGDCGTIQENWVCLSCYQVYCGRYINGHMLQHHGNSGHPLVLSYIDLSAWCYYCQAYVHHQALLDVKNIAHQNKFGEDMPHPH
Method: The exemplary compounds of Formula I and structurally related compounds were synthesized to assess their structure-activity relationship. […] The IC50 values for each exemplary compound were used to calculate the selectivity of the exemplary compounds for Formula I to HDAC6. The selectivity of each exemplary compound for HDAC6 was determined from examining the potency of HDAC6 in relation to the highest binding affinity of the other HDAC isoforms tested.

MRC9 = test: Cytotoxicity in cell lines; format: cell-based; details: Table 5
Method: as §1

HUVEC = test: Toxicity in healthy cell lines; format: cell-based; details: Homo sapiens, read-out: IC50 HUVEC
Method: as §1

Normal Human Fibroblast = test: Toxicity in healthy cell lines; format: cell-based; details: read-out: IC50 Normal Human Fibroblast
Method: as §1

[1] = Kinetic solubility by analytical HPLC; format: physicochemical; details: PBS with 5% (v/v) DMSO, aqueous with cosolvent or surfactant or cyclodextrin, kinetic from dmso stock; PBS + 5% DMSO; initial concentration 300 μM; read-out: Saturation Concentration
Method: The initial concentration of each exemplary compound was 300 μM.

panel of 97 kinases = test: Kinome screen; format: biochemical; details: kinase screen
HeLa cells = test: Immunofluorescence analysis of α-tubulin and histone H3 acetylation; format: cell-based; details: 6 h treatment
Source text: Similar analysis is shown for exemplary compound I-34 in FIG. 19.

[2] = K562, Table 4, read-out: IC50 K562
[3] = Homo sapiens, MV4-11, Table 4, read-out: IC50 MV-411
[4] = K562, Table 5, read-out: IC50 K562
[5] = MOLM-13, Table 5, read-out: IC50 MOLM-13
[6] = Homo sapiens, MV4-11, Table 5, read-out: IC50 MV-411
[7] = MOLM-13, Table 4, read-out: IC50 MOLM-13

O=C(NO)c1ccc(CN(Cc2cccnc2F)S(=O)(=O)c2cc(F)c(F)c(F)c2F)cc1 [Compound I-19, N-hydroxy-4-((2,3,4,5-tetrafluoro-N-((2-fluoropyridin-3-yl)methyl)phenylsulfonamido)methyl)benzamide]
IC50 (K562; [2]): 5600 nM

O=C(NO)c1ccc(CN(C2CCCC2)S(=O)(=O)c2cc(F)c(F)c(F)c2F)cc1 [Compound I-51, 4-(((N-cyclopentyl-2,3,4,5-tetrafluorophenyl)sulfonamido)methyl)-N-hydroxybenzamide]
IC50 (MM.1S): 2700 nM | IC50 (MV-4-11; [3]): 2800 nM

O=C(/C=C/c1ccc(CN(Cc2cccnc2)S(=O)(=O)c2cc(F)c(F)c(F)c2F)c(C(F)(F)F)c1)NO [Compound I-80]
IC50 (K562; [4]): 16300 nM | IC50 (MOLM-13; [5]): 7600 nM | IC50 (MV-4-11; [6]): 338 nM

O=C(NO)c1ccc(CN(CCc2ccccc2F)S(=O)(=O)c2cc(F)c(F)c(F)c2F)cc1 [Compound I-21, N-hydroxy-4-((2,3,4,5-tetrafluoro-N-(2-fluorophenethyl)phenylsulfonamido)methyl)benzamide]
IC50 (K562; [2]): 7900 nM | IC50 (MOLM-13; [7]): 1700 nM | IC50 (MV-4-11; [3]): 478 nM

O=C(/C=C/c1ccc(CN(C2CCCC2)S(=O)(=O)c2c(F)c(F)c(F)c(F)c2F)cc1)NO [Compound I-57, (E)-3-(4-((N-cyclopentyl-2,3,4,5,6-pentafluorophenylsulfonamido)methy)phenyl)-N-hydroxyacrylamide]
IC50 (HDAC6): 10 to 30 nM | IC50 (MRC9): > 50000 nM

O=C(NO)c1ccc(CN(Cc2cccnc2F)S(=O)(=O)c2cc(F)c(F)c(F)c2F)c(F)c1 [Compound I-32, 3-fluoro-N-hydroxy-4-((2,3,4,5-tetrafluoro-N-((2-fluoropyridin-3-yl)methyl)phenylsulfonamido)methyl)benzamide]
IC50 (K562; [2]): 8600 nM | IC50 (MOLM-13; [7]): 1980 nM | IC50 (MV-4-11; [3]): 389 nM | IC50 (HUVEC; Table 4, healthy cells): 5100 nM | IC50 (Normal Human Fibroblast; Table 4, healthy cells): 7100 nM

CC(C)N(Cc1cc(F)c(C(=O)NO)cc1F)S(=O)(=O)c1cc(F)c(F)c(F)c1F [Compound I-52, 2,5-difluoro-N-hydroxy-4-(((2,3,4,5-tetrafluoro-N-isopropylphenyl)sulfonamido)methyl)benzamide]
IC50 (MM.1S): 400 nM | IC50 (MV-4-11; [3]): 1000 nM

CC(C)N(Cc1ccc(C(=O)NO)cc1)S(=O)(=O)c1cc(F)c(F)c(F)c1F [Compound I-12, N-hydroxy-4-((2,3,4,5-tetrafluoro-N-isopropylphenylsulfonamido)methyl)benzamide]
solubility kinetic [1]: 74.5 ± 3 µM | inhibitory activity on a panel of 97 kinases (panel of 97 kinases): limited to no inhibitory activity

O=C(CCCCCCNC(=O)c1cnc(N(c2ccccc2)c2ccccc2)nc1)NO [Ricolinostat, reference compound]
solubility kinetic [1]: 26.1 ± 11.3 µM | IC50 (K562; K562, read-out: IC50 K562): 12800 nM | IC50 (MOLM-13; MOLM-13, read-out: IC50 MOLM-13): 6490 nM | IC50 (MV-4-11; Homo sapiens, MV4-11, read-out: IC50 MV-411): 656 nM | IC50 (HUVEC): 4900 nM | IC50 (Normal Human Fibroblast): 5700 nM

COc1cc(/C=C/C(=O)NO)ccc1CN(Cc1cccnc1F)S(=O)(=O)c1cc(F)c(F)c(F)c1F [Compound I-77]
IC50 (K562; [4]): 72800 nM | IC50 (MOLM-13; [5]): 3300 nM | IC50 (MV-4-11; [6]): 1100 nM

O=C(/C=C/c1ccc(CN(Cc2cccnc2F)S(=O)(=O)c2cc(F)c(F)c(F)c2F)c(C(F)(F)F)c1)NO [Compound I-79]
IC50 (K562; [4]): 25900 nM | IC50 (MOLM-13; [5]): 7900 nM | IC50 (MV-4-11; [6]): 329 nM

O=C(/C=C/c1ccc(CN(C2CC2)S(=O)(=O)c2c(F)c(F)c(F)c(F)c2F)cc1)NO [Compound I-56]
IC50 (MRC9): > 50000 nM

O=C(NO)c1ccc(CN(Cc2cccnc2)S(=O)(=O)c2cc(F)c(F)c(F)c2F)c(F)c1 [Compound I-30, 3-fluoro-N-hydroxy-4-((2,3,4,5-tetrafluoro-N-(pyridin-3-ylmethyl)phenylsulfonamido)methyl)benzamide]
solubility kinetic [1]: 46 ± 4.4 µM | IC50 (K562; [2]): 9300 nM | IC50 (MOLM-13; [7]): 2900 nM | IC50 (MV-4-11; [3]): 607 nM | IC50 (HUVEC; Table 4, healthy cells): 4100 nM | IC50 (Normal Human Fibroblast; Table 4, healthy cells): 6100 nM

O=C(CCCCCCNC(=O)c1cnc(N(c2ccccc2)c2ccccc2Cl)nc1)NO [Citarinostat, reference compound]
effect on α-tubulin acetylation (immunofluorescence) (HeLa cells): no preferential acetylation on α-tubulin until high concentrations

O=C(/C=C/c1ccc(CN(C2CCCC2)S(=O)(=O)c2cc(F)c(F)c(F)c2F)cc1)NO [Compound I-65, (E)-3-(4-((N-cyclopentyl-2,3,4,5-tetrafluorophenylsulfonamido)methyl)phenyl)-N-hydroxyacrylamide]
IC50 (HDAC6): 150 to 200 nM | IC50 (MV-4-11; [6]): 2430 nM | IC50 (MV-4-11; Table 5, read-out: IC50 MV-411): 1940 nM

CC(C)CN(Cc1ccc(C(=O)NO)cc1)S(=O)(=O)c1cc(F)c(F)c(F)c1F [Compound I-54, N-hydroxy-4-(((2,3,4,5-tetrafluoro-N-isobutylphenyl)sulfonamido)methyl)benzamide]
IC50 (MM.1S): 700 nM | IC50 (MV-4-11; [3]): 500 nM
